Reference: patent US20250275944A1, “RELATIVE UNDERSUPPLY OF AN AMYLOID BETA AGGREGATION INHIBITOR FOR IMPROVED DETOXIFYING EFFECTS” (Galimedix Therapeutics Inc, priority 2022, published 2025)
“Also recorded” adds a separate entry of the source. Blank lines part the entries; values can stand above or below the compound they belong to. Non-standard residues stand in square brackets, D forms with d. Residues, ends and D or L forms follow the SMILES beside them. Aib = CC(C)(N)C(=O)O

How the values were obtained:
[1] = biological target: amyloid beta Aβ1-42 (Homo sapiens, UniProt P05067); conditions: read-out: binding affinity to amyloid beta Aβ1-42; cited from earlier work
[2] = biological target: T1, oligomeric Aβ1-42 (Homo sapiens, UniProt P05067); test: In vivo LTP in anesthetized rats after i.c.v. oligomeric Aβ1-42; parameters: species or system rat; conditions: for PS amplitude 80-90 min after LTP induction: Aβ1-42 alone 138.1±4.1, vehicle 179.2±8.7
T1 construct: Amyloid beta Aβ1-42 has been injected into brain ventricles at a concentration that strongly suppresses LTP; host or cells: peptide solution injected into anesthetized rats
Description: FIG. 3 Represents a graphical illustration of compound (1)'s dose-dependent effects on in vivo LTP in anesthetized rats at very low concentrations. Given are normalized LTP of population spike (PS) amplitude at 80-90 min post theta burst stimulation (TBS). Compound (1) has been administered s.c. at dose of 0.08 mg/kg, 0.4 mg/kg, and 2.0 mg/kg. Amyloid beta Aβ1-42 has been injected into brain ventricles at a concentration that strongly suppresses LTP (black column). […] The aim of this experiment was to evaluate the dose-dependent effects of compound (1) on in vivo LTP in anesthetized rats at very low concentrations. Compound (1) has been administered s.c. at dose of 0.08 mg/kg, 0.4 mg/kg, and 2.0 mg/kg. Amyloid beta Aβ1-42 has been injected into brain ventricles at a concentration that strongly suppresses LTP. […] In animals subject to intracerebroventricular (i.c.v.) injection of 6 μL oligomeric Aβ1-42 solution (1.67 mM) significant deficits in LTP were observed. (FIG. 3). At the end of the recording period, 80-90 min after LTP induction, the PS amplitude following i.c.v. administration of oligomeric Aβ1-42 measured 138.1±4.1% of baseline (n=18), compared to 179.2±8.7% in PBS-injected animals (n=12). In animals subjected to i.c.v injection of 6 μL oligomeric Aβ1-42, 3 different s.c. doses of compound (1), namely 0.08, 0.4 and 2 mg/kg, were administrated before i.c.v. injection of oligomeric Aβ1-42. […] At the end of the recording period, 80-90 min after LTP induction, the PS amplitude following s.c. administration of compound (1) and i.c.v. administration of oligomeric Aβ1-42 measured 170.0±11.9% of baseline (n=7) for the 2 mg/kg dose, 174.7±16.0% of baseline (n=6) for the 0.4 mg/kg dose, and 139.6±13.1% of baseline (n=4) for the 0.08 mg/kg dose, compared to 179.2±8.7% in vehicle-treated controls (n=12) and 138.1±4.1% i.c.v. oligomeric Aβ1-42-injected animals (n=18).

[3] = biological target: T2, Aβ1-42 monomers (Homo sapiens, UniProt P05067); test: Surface Plasmon Resonance (SPR) binding of compound (1) to immobilized Aβ1-42 monomers (Biacore X100)
T2 construct: purchased American Peptide Company, Sunnyvale, CA, USA; host or cells: synthetic peptide
Description: FIG. 1 Represents a graphical illustration of compound (1)'s target affinity to amyloid beta Aβ1-42 monomers using Surface Plasmon Resonance (SPR). Synthetic Aβ1-42 was used for this binding assay performed with a Biacore X100 biosensor instrument equipped with two flow cells. Aβ1-42 was covalently coupled to one flow cell of CM7 sensor chips using an amine coupling kit. HBS-EP was used as assay running buffer. The analyte compound (1) was injected over the sensor chip in concentrations ranging from 0.3 nM up to 1000 nM at a flow rate of 10 μL/min for 180 sec at 25° C. […]
The aim of this experiment was to evaluate the target affinity of compound (1) to misfolded Aβ1-42 monomers. The affinity was determined using in vitro Surface Plasmon Resonance (SPR) technology. […]
The resonance units (RUs) elicited by the compound injected into the ethanolamine control flow cell was set as reference response and subtracted from the RUs elicited by the same compound injected to the Aβ saturated flow cell. […] The dissociation equilibrium constant KD of the analyte to the immobilized Aβ was determined from the steady-state levels estimating the maximum RU Rmax and calculating the KD as the concentration of the compound that elicited one-half of the Rmax.

[4] = biological target: T3, Aβ1-42 oligomers (Homo sapiens, UniProt P05067); test: In vitro LTP in hippocampal brain slices superfused with 50 nM Aβ1-42; parameters: species or system mice; conditions: for effect on Aβ1-42 toxicity in in vitro LTP: 50 nM Aβ1-42; for Relative effect size (blocking Aβ1-42 toxicity): control LTP = 100%, Aβ1-42 alone = 0%
T3 construct: host or cells: peptide added to the superfusion solution of hippocampal slices
Description: FIGS. 4A-B. FIG. 4A Illustrates plots from in vitro LTP experiments using rat brain slices that were superfused at 23° C. with 50 nM Aβ1-42 and/or with 10 nM compound (1). The compound (1) solution was added for 90 min before HFS was delivered in the first input (dark grey circles). […] To ensure the validity of the Aβ1-42-mediated effect, interleaved experiments with Aβ1-42 (50 nM, closed circles, n=12) were additionally performed in separate slices. […] Representative field excitatory postsynaptic potentials ([…]) are shown on top. FIG. 4B Represents a graphical illustration of compound (1)'s dose-dependent effects on in vitro LTP in rat brain slices based on LTP experiments shown in FIG. 4A. Toxic Aβ1-42 oligomers formed from 50 nM amyloid beta Aβ1-42 monomers block the LTP response almost entirely (black column). […] This refutes the previous scientific status, which called for an excess of the detoxifying agent. Data are shown as means of 5 experiments (n=5)±standard deviations. For the long-term potentiation (LTP) experiments brain slices from 2 months old mice were used. Transverse hippocampal slices (350 μm thick) were obtained after decapitation under isoflurane-anesthesia. All slices were placed in a holding chamber for at least 60 min and were then transferred to a super fusing chamber for extracellular recordings. The flow rate of the solution through the chamber was 4 ml/min. […] All experiments were performed at room temperature. Aβ1-42 stock solution in DMSO was added to the bath solution to give a final concentration of 50 nM. Extracellular recordings of field excitatory postsynaptic potentials (fEPSPs) were obtained from the dendritic region of the CA1 region of the hippocampus using glass micropipettes filled with superfusion solution. For all recordings both stimulating electrodes were used to utilize the input specificity of LTP and thereby allow the measurement of an internal control within the same slice. Steady baseline recordings were made for at least 30 minutes before application of tetanic stimuli. For LTP induction, high-frequency stimulation (HFS) conditioning pulses (100 Hz/1 s; 4-5 V) were applied to the Schaffer collateral commissural pathway via two independent inputs. Before inducing LTP, Aβ1-42 has been applied for 90 min. HFS was delivered from one of the electrodes under conditions in the presence of Compound (1) and potentiation of the responses was monitored for at least 60 min after the tetanus. Either Aβ1-42 was then applied via the bath solution for 90 min before attempting to induce LTP in the second input following HFS delivered via the second electrode. Amplified fEPSPs were filtered (3 kHz), digitized (15 kHz), measured and plotted (FIG. 4A). Measurements of the slope of the fEPSP were taken between 20% and 80% of the peak amplitude. Slopes of fEPSPs were normalized with respect to the 20 min control period before tetanic stimulation. Compound (1) was used at various concentrations in these LTP experiments. […] FIG. 4B summarizes the effects of different compound (1) concentrations leading to different stoichiometric Aβ1-42/compound (1) ratios (10:1, 2:1, 1:5). The LTP signals (fEPSP potentiation) calculated as the average of the last 50-60 mins after HFS are presented as a bar diagram. […] The control experiment is defined as 100% normalized LTP response and the toxic effect of 50 nM Aβ1-42 oligomers is defined as 0% normalized LTP change. Using the usual stoichiometric excess for compound (1), namely 500 nM or 100 nM, leads to a weak detoxifying effect of 40.2% and 34.7%, respectively.

[5] = Pharmacokinetics in the rat brain: microdialysis of brain interstitial fluid (prefrontal cortex), HPLC-MS/MS; format: in vivo
Description: FIG. 2 Represents a graphical illustration of compound (1)'s pharmacokinetics in the rat brain. Compound (1) was administered as subcutaneous (s.c.) injection at doses of 0.4 mg/kg (∇) and […] (O, Δ). A microdialysis probe has been placed in the prefrontal cortex of these adult male Sprague Dawley rats to measure the concentration of compound (1) in the brain interstitial fluid (ISF) using a HPLC system with MS/MS detector. The dialysate samples were collected at a flow rate of 0.10 μL/min with a carrier flow rate of 0.8 μL/min. The animals were either anesthetized or awake and freely moving. Microdialysis data over a period of 360 min are depicted on a linear scale as means of 4 measurements±SEM.
The aim of this experiment was to evaluate the pharmacokinetics of compound (1) in the rat brain. Compound (1) was administered subcutaneously to anesthetized or awake and freely moving animals. A microdialysis probe has been placed in the prefrontal cortex of these adult male Sprague Dawley rats to measure the concentration of compound (1) in the brain interstitial fluid (ISF) using a HPLC system with MS/MS detector.

T3 sequence (P05067 672-713 limits assumed): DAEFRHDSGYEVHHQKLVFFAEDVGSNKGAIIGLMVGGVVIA
T1 sequence (P05067 672-713 limits assumed): as above
T2 sequence (P05067 672-713 limits assumed): as above
Chain of amyloid beta Aβ1-42 (P05067 672-713 limits assumed): as above

Compound: CC(C)(NC(=O)C(N)Cc1c[nH]c2ccccc12)C(=O)O (stereo not shown) [GAL-101, 2-[2-Amino-3-(1H-indol-3-yl)-propionylamino]-2-methyl-propionic acid]
Kd [1]: 28.9 ± 2.9 nM

effect on Aβ1-42-suppressed in vivo LTP ([2]; 0.08 mg/kg s.c.): loss of the pharmacological effect
PS amplitude 80-90 min after LTP induction ([2]; 0.08 mg/kg s.c. + i.c.v. oligomeric Aβ1-42, n=4): 139.6±13.1 % of baseline
PS amplitude 80-90 min after LTP induction ([2]; 0.4 mg/kg s.c. + i.c.v. oligomeric Aβ1-42, n=6): 174.7±16.0 % of baseline
PS amplitude 80-90 min after LTP induction ([2]; 2 mg/kg s.c. + i.c.v. oligomeric Aβ1-42, n=7): 170.0±11.9 % of baseline
Kd ([3]; SPR steady state, 25° C, HBS-EP, 0.3-1000 nM, n=4, read-out: KD (dissociation constant) at Aβ1-42 monomers): 2.5 ± 0.6 nM
affinity to the target compared to GAL-101 (fold stronger) ([3]; compound (1) vs GAL-101): 4 fold
LTP induction in presence of compound alone ([4]; 10 nM compound (1), 90 min before HFS, no Aβ1-42): allowed the induction of LTP
peak brain concentration (extracellular space of the brain) ([5]; s.c. 0.4 mg/kg): 10 nM
brain concentration (brain ISF) ([5]; s.c. 2 mg/kg): ca. 60 nM
Compound: CC(C)(NC(=O)[C@H](N)Cc1c[nH]c2ccccc12)C(N)=O [compound (1), (2R)-2-amino-N-(1-carbamomyl-1-methlyethyl)-3-(1H-indol-3-yl) propanamide] (H-[dW]-[Aib]-NH2)
effect on Aβ1-42-suppressed in vivo LTP ([2]; 0.4 mg/kg s.c.): at least as potent efficacy on LTP; also recorded: fully restored LTP signal; also recorded: brought post-TBS responses towards those observed in control animals
effect on Aβ1-42-suppressed in vivo LTP ([2]; 2 mg/kg s.c.): brought post-TBS responses towards those observed in control animals; also recorded: normalizes the LTP signal
effect on Aβ1-42 toxicity in in vitro LTP ([4]; 10 nM compound (1)): best prevented the detrimental effect of 50 nM Aβ1-42 on hippocampal LTP; also recorded: able to prevent LTP blockade; also recorded: blocks Aβ1-42 toxicity almost completely
Relative effect size (blocking Aβ1-42 toxicity) ([4]; 10 nM compound (1), 50 nM Aβ1-42, ratio 1:5): 88.1%
effect on Aβ1-42 toxicity in in vitro LTP ([4]; 100 nM compound (1)): only partially alleviate the toxic effect of Aβ1-42
Relative effect size (blocking Aβ1-42 toxicity) ([4]; 100 nM compound (1), 50 nM Aβ1-42, ratio 2:1): 34.7%
Relative effect size (blocking Aβ1-42 toxicity) ([4]; 100 nM compound (1), 50 nM Aβ1-42, ratio 2:1, listed as Compound (1)): 34.7%
effect on Aβ1-42 toxicity in in vitro LTP ([4]; 500 nM compound (1)): only partially alleviate the toxic effect of Aβ1-42
Relative effect size (blocking Aβ1-42 toxicity) ([4]; 500 nM compound (1), 50 nM Aβ1-42, ratio 10:1): 40.2%
Relative effect size (blocking Aβ1-42 toxicity) ([4]; 500 nM compound (1), 50 nM Aβ1-42, ratio 10:1, listed as Compound (1)): 40.2%
detoxifying effect in undersupply compared to stoichiometric excess ([4]; 10-fold undersupply (ratio 1:10) as worded, refers to Table 1): more than double as strong
molecules of Aβ1-42 detoxified by 1 molecule of compound (1) ([4]; efficacy at 10 nM vs 50 nM Aβ1-42): 5
